Activity calls are given as the source filed them. No cut-off for these calls is given here.
Assays:
[1] = system: BMDM; test: Inhibition of osteoclastogenesis in M-CSF/RANKL-induced osteoclast differentiation in C57BL/6J mouse BMDM cells assessed as reduction in MMP-9 level measured after 5 days by Western blot analysis; type: functional, cell-based; settings: dose <= 2.0 µM, time 5.0 day
[2] = system: BMDM; test: Effect in JNK level in M-CSF/RANKL-induced osteoclast differentiation in C57BL/6J mouse BMDM cells at 1 uM measured upto 60 mins by Western blot analysis; type: functional, cell-based
[3] = system: MC3T3-E1; test: Cytotoxicity against mouse MC3T3-E1 cells at 0.5 to 2 uM incubated for 7 days by MTT assay; type: toxicity, cell-based; settings: mc3t3-e1, 168 h, dose 0.5-2 µM, time 7 day
[4] = system: BMDM; test: Inhibition of osteoclastogenesis in M-CSF/RANKL-induced osteoclast differentiation in C57BL/6J mouse BMDM cells assessed as decrease in NFATc1 level at 1 uM measured for 5 days by Western blot analysis; type: functional, cell-based; settings: time 5.0 day
[5] = system: BMDM; test: Inhibition of osteoclastogenesis in M-CSF/RANKL-induced osteoclast differentiation in C57BL/6J mouse BMDM cells assessed as suppression of osteoclast size measured after 7 days by F-actin ring-TRITC phalloidin staining based analysis; type: functional, cell-based; settings: dose <= 2.0 µM, time 7.0 day
[6] = molecular target: T1, Tumor necrosis factor ligand superfamily member 11 (Homo sapiens, UniProt O14788); test: Binding affinity to CM5 sensor chip-immobilized RANKL (unknown origin) assessed as dissociation constant by SPR analysis
T1 sequence (O14788 whole entry): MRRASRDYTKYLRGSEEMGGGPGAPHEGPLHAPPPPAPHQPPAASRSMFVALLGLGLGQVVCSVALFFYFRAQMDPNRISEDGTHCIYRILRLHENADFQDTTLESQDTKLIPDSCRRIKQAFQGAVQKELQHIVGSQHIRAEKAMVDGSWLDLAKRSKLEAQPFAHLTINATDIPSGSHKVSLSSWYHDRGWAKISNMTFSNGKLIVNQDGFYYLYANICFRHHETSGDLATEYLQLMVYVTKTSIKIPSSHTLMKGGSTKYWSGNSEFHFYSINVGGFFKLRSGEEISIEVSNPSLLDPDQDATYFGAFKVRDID

[7] = system: MC3T3-E1; test: Effect on osteoblast mineralization in mouse MC3T3-E1 cells assessed as change in calcium nodules at 0.5 to 2 uM incubated for 7 days by ARS staining based analysis; type: functional, cell-based; settings: dose 0.5-2 µM, time 7.0 day
[8] = system: BMDM; test: Inhibition of osteoclastogenesis in M-CSF/RANKL-induced osteoclast differentiation in C57BL/6J mouse BMDM cells assessed as reduction in NFATc1 mRNA level measured after 5 days by qRT-PCR analysis; type: functional, cell-based; settings: dose <= 2.0 µM, time 5.0 day
[9] = system: BMDM; test: Inhibition of osteoclastogenesis in M-CSF/RANKL-induced osteoclast differentiation in C57BL/6J mouse BMDM cells at 1 uM measured for 1 to 3 days by TRAP staining based analysis; type: functional, cell-based; settings: time 1-3 day
[10] = system: RAW264.7; test: Cytotoxicity against mouse RAW264.7 cells assessed as decrease in cell viability at 1 uM incubated for 48 hrs by MTT assay; type: toxicity, cell-based; settings: raw264.7, 48 h
[11] = system: BMDM; test: Inhibition of osteoclastogenesis in M-CSF/RANKL-induced osteoclast differentiation in C57BL/6J mouse BMDM cells assessed as reduction in cathepsin K mRNA level measured after 5 days by qRT-PCR analysis; type: functional, cell-based; settings: dose <= 2.0 µM, time 5.0 day
[12] = system: Mus musculus; test: Anti-osteoporosis effect in OVX-induced osteoporosis C57BL/6 mouse model assessed as increase in Tb.Th value at 10 mg/kg, po administered every other day for 8 weeks by micro-CT analysis; type: functional, organism-based
[13] = system: BMDM; test: Inhibition of osteoclastogenesis in M-CSF/RANKL-induced osteoclast differentiation in C57BL/6J mouse BMDM cells assessed as reduction in TRAP mRNA level measured after 5 days by qRT-PCR analysis; type: functional, cell-based; settings: dose <= 2.0 µM, time 5.0 day
[14] = system: MC3T3-E1; test: Effect on osteoblast differentiation in mouse MC3T3-E1 cells assessed as change in collagen I level at 0.5 to 2 uM incubated for 7 days by Western blot analysis; type: functional, cell-based; settings: dose 0.5-2 µM, time 7.0 day
[15] = system: BMDM; test: Inhibition of osteoclastogenesis in M-CSF/RANKL-induced osteoclast differentiation in C57BL/6J mouse BMDM cells assessed as reduction in DC-STAMP mRNA level measured after 5 days by qRT-PCR analysis; type: functional, cell-based; settings: dose <= 2.0 µM, time 5.0 day
[16] = system: BMDM; test: Inhibition of osteoclastogenesis in M-CSF/RANKL-induced osteoclast differentiation in C57BL/6J mouse BMDM cells assessed as reduction in c-Fos mRNA level measured after 5 days by qRT-PCR analysis; type: functional, cell-based; settings: dose <= 2.0 µM, time 5.0 day
[17] = system: BMDM; test: Inhibition of osteoclastogenesis in M-CSF/RANKL-induced osteoclast differentiation in C57BL/6J mouse BMDM cells assessed as decrease in NFATc1 mRNA level at 1 uM measured for 5 days by qRT-PCR analysis; type: functional, cell-based; settings: time 5.0 day
[18] = system: MC3T3-E1; test: Effect on osteoblast differentiation in mouse MC3T3-E1 cells assessed as change in BMP2 mRNA level at 0.5 to 2 uM incubated for 7 days by qRT-PCR analysis; type: functional, cell-based; settings: dose 0.5-2 µM, time 7.0 day
[19] = Toxicity in OVX-induced osteoporosis C57BL/6 mouse model assessed as pathological change in liver at 10 mg/kg, po administered every other day for 8 weeks by H and E staining based analysis; type: organism-based; settings: in vivo, 1344 h
[20] = system: BMDM; test: Inhibition of osteoclastogenesis in M-CSF/RANKL-induced osteoclast differentiation in C57BL/6J mouse BMDM cells assessed as reduction in I-kappaB-alpha degradation at 1 uM measured upto 60 mins by Western blot analysis; type: functional, cell-based
[21] = system: MC3T3-E1; test: Effect on osteoblast differentiation in mouse MC3T3-E1 cells assessed as change in BMP2 level at 0.5 to 2 uM incubated for 7 days by Western blot analysis; type: functional, cell-based; settings: dose 0.5-2 µM, time 7.0 day
[22] = system: BMDM; test: Inhibition of osteoclastogenesis in M-CSF/RANKL-induced osteoclast differentiation in C57BL/6J mouse BMDM cells assessed as reduction in NFATc1 level measured after 5 days by Western blot analysis; type: functional, cell-based; settings: dose <= 2.0 µM, time 5.0 day
[23] = system: MC3T3-E1; test: Effect on osteoblast differentiation in mouse MC3T3-E1 cells assessed as change in Runx2 level at 0.5 to 2 uM incubated for 7 days by Western blot analysis; type: functional, cell-based; settings: dose 0.5-2 µM, time 7.0 day
[24] = Toxicity in OVX-induced osteoporosis C57BL/6 mouse model assessed as adverse event at 10 mg/kg, po administered every other day for 8 weeks; type: organism-based; settings: in vivo, 1344 h
[25] = system: BMDM; test: Inhibition of osteoclastogenesis in M-CSF/RANKL-induced osteoclast differentiation in C57BL/6J mouse BMDM cells assessed as reduction in MMP-9 mRNA level measured after 5 days by qRT-PCR analysis; type: functional, cell-based; settings: dose <= 2.0 µM, time 5.0 day
[26] = system: MC3T3-E1; test: Effect on osteoblast differentiation in mouse MC3T3-E1 cells assessed as change in collagen I mRNA level at 0.5 to 2 uM incubated for 7 days by qRT-PCR analysis; type: functional, cell-based; settings: dose 0.5-2 µM, time 7.0 day
[27] = Cytotoxicity against C57BL/6J mouse BMDM cells assessed as decrease in cell viability at 20 uM incubated for 48 hrs by MTT assay; type: toxicity, cell-based
[28] = molecular target: T2, Tumor necrosis factor ligand superfamily member 11 (Homo sapiens) (UniProt O14788); test: Binding affinity to RANKL (unknown origin) incubated for 15 mins by RED-NHS dye based MST assay
T2 sequence (whole entry): T1 sequence (O14788 whole entry)

O=C1C([Se]c2ccccc2)=C([Se]c2ccccc2)C(=O)N1Cc1ccccc1
inhibition [1]: Dose-dependent-effect
Activity [2]: No effect
Activity [3]: Non-toxic
inhibition [4]: Active
inhibition [5]: Dose-dependent-effect
Kd [6]: 920 nM
Activity [7]: No effect
inhibition [8]: Dose-dependent-effect
inhibition [9]: Active
Activity [10]: Non-toxic
inhibition [11]: Dose-dependent-effect
Activity [12]: Active; Displayed Similar Effect With That Exhibited By Alendronate
inhibition [13]: Dose-dependent-effect
Activity [14]: No effect
inhibition [15]: Dose-dependent-effect
inhibition [16]: Dose-dependent-effect
inhibition [17]: Active
Activity [18]: No effect
Activity [19]: Non-toxic
inhibition [20]: Active
Activity [21]: No effect
inhibition [22]: Dose-dependent-effect
Activity [23]: No effect
Activity [24]: Non-toxic
inhibition [25]: Dose-dependent-effect
Activity [26]: No effect
Activity [27]: Non-toxic
Activity [28]: 1.51 µM
